Consider three compounds from patent US8470889B2 (TRT Pharma Inc., priority 2008, dated 2013).

For data set [1], the target named is T1, T877A mutated AR (Homo sapiens, UniProt P10275, T878A).
T1 sequence (P10275 1-920 T878A): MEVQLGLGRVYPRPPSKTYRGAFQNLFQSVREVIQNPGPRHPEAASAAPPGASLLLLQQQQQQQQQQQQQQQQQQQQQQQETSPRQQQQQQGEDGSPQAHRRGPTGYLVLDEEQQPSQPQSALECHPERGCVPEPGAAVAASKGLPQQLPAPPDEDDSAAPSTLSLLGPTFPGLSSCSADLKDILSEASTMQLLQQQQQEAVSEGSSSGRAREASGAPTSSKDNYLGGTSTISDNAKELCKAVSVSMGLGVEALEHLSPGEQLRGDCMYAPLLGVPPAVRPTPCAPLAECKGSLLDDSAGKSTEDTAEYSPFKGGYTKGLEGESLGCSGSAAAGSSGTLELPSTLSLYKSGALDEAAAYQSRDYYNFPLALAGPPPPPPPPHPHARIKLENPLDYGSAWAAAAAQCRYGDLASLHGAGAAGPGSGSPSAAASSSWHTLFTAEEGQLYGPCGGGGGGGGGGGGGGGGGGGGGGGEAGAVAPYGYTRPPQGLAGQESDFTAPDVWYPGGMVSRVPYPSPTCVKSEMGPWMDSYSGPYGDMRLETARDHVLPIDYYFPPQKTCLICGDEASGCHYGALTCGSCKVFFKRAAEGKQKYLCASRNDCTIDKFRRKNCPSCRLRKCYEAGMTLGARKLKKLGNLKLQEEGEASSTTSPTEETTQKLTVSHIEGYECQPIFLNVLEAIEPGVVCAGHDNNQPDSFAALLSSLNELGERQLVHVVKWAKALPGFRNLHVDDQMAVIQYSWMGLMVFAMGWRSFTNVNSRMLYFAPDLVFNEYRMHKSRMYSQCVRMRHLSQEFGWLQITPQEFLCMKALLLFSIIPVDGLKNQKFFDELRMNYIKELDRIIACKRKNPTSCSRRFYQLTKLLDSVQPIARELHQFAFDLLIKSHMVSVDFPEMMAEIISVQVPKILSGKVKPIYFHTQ
Description: Luciferase assay for AR transactivation, T877A AR, PC-3 cells. In kind it is cell-based. The following applies: 0.1 nM DHT; for suppression of DHT-induced transactivation of T877A AR: test compound 0.1-1 μM, PC-3 cells; for Antiandrogenic activity evaluated by luciferase assay in PC-3 cells T877A: test compound 1 μM. As to the method:
PC-3 cells were transiently transfected with pCMV-MMTV-Luc, Renilla null luciferase and AR expressing plasmids. The cells were treated with 0.1 nM DHT with and without test compound for 24 hr. Relative luciferase activity was determined by dual luciferase assay kit (Promega), standardized to Renilla luciferase control and normalized to 0.1 nM DHT without test compound (100%).
After 16 h, the cells were treated with 0.1 nM of DHT and test compounds at the designated concentration. After further 24 h, the cells were lysed in 100 μL/well passive lysis buffer, and 20 μL of the cell lysates was used for detection of the luciferase activity using Dual Luciferase Assay System (Promega). All experiments were run in triplicate. Relative luciferase activity is determined as the ratio of inducible firefly luciferase luminescence divided by the luminescence of the renilla luciferase control normalized to 0.1 nM DHT without test compounds.
The potency of antagonistic activity: ++>+.

Data set [2] concerns NF-κB-dependent luciferase activity induced by expression of IKKi, TBK1, IKKb and p65. Description: NF-κB-dependent luciferase activity in HEK293 cells. In kind it is cell-based. Conditions: 24 h, FIG. 11A-C. As to the method: Compound 10 inhibits IKKβ, IKKε and TBK1 and suppresses NF-κB activation. […] HEK293 cells were transiently transfected with NF-κB-Luc or ISRE-Luc, co-transfected with plasmid encoding IKKi, TBK1, IKKb, p65 or IRF3 (5D), using Lipofectamine™ 2000 reagent (Invitrogen). The transfected cells were treated with DMSO vehicle and test compounds at designated doses for 24 h. Luciferase activity was evaluated using Dual Luciferase Assay System (Promega) and expressed as fold of induction related to the basal level of the reporter gene after normalization with cotransfected Renilla relative light units.
Now referring to FIG. 18, the impact of compounds 10, and SC345, SC346 and SC347 on the NF-κB-dependent luciferase activity induced by expression of TBK1 and IKKβ. HEK293 cells were transiently transfected with NF-κB-Luc, co-transfected with plasmid encoding TBK1 or IKKβ, using Lipofectamine™ 2000 reagent (Invitrogen). The transfected cells were treated with DMSO vehicle and test compounds at 2.5 μM for 24 h. Luciferase activity was evaluated using Dual Luciferase Assay System (Promega) and expressed as fold of induction related to the basal level of the reporter gene after normalization with cotransfected Renilla relative light units.

Data set [3] has as its system PC-3 cells. Description: MTT cell growth inhibition, PC-3.
The test system of data set [4] is LNCaP cells. Description: MTT cell growth inhibition, LNCaP.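 Note: MTT formazan absorbance at 600 nm read after 72 h of compound exposure, IC50 fitted by nonlinear regression of dose-response curves, samples run in triplicate.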
Description: (§2) MDA PCa 2b was seeded at the same density in medium BRFF-HPC1 (Athena Enzyme Systems, Baltimore, Md., USA) supplemented with 20% FBS. After overnight incubation, the medium was changed to a fresh medium containing different concentrations of test compounds diluted from stock DMSO solution. The final concentration of DMSO is 0.5%. After 72 h of incubation with test compounds, 20 μL of 3-(4,5-dimethyl thiazol-2-yl)-2,5-diphenyltetrazolium bromide (MTT) solution (5 mg/mL in PBS) were added to each well and incubated further for 2 h. Next, the supernatant was aspirated and the MTT formazan formed by metabolically viable cells was dissolved in 100 μL of isopropanol. The plates were mixed for 30 min, and the absorbance was measured at 600 nm on a plate reader (FLUOstar OPTIMA, BMG LabTech). All samples were in triplicate. The IC50 values were determined from dose-response curves by nonlinear regression using PRISM v5.00 (GraphPad Software Inc, La Jolla, Calif., USA).
(§3) The in vitro cytotoxicity of 1-20 were evaluated by MTT assays in a panel of prostate cancer cell lines, including LNCaP, MDA PCa 2b, 22Rv1, C4-2B and PC-3.
Data set [5] has as its system 22Rv1 cells. Description: MTT cell growth inhibition, 22Rv1. The following applies: read-out: Cellular IC50 (μM) 22Rv1; Table 9; MTT.
Description: as §2, §3
In data set [6] the test system is C4-2B cells. Description: MTT cell growth inhibition, C4-2B.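 Note: cells treated with a dilution series for 72 h, then MTT added and absorbance read at 600 nm, IC50 fitted from dose-response curves by nonlinear regression.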 Conditions: read-out: Cellular IC50 (μM) C4-2B, Table 9.
Data set [7] relates to MDA PCa 2b cells. Description: MTT cell growth inhibition, MDA PCa 2b.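 Note: MDA PCa 2b prostate cancer cells in BRFF-HPC1 with 20% FBS, exposed to compounds for 72 h, viable-cell MTT formazan read as absorbance at 600 nm, 0.5% DMSO vehicle.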 Conditions: MTT.
Description: as §2, §3
The test system of data set [8] is MCF-7 cells. Description: Growth inhibition, MCF-7 breast cancer cells. In kind it is cell-based. Conditions: for IC50: Table 10, read-out: Cytotoxicity, IC50 (μM) MCF-7. The text has this:
(§1) All samples were in triplicate.

Data set [9] concerns MDA-MB-231 cells. Description: Growth inhibition, MDA-MB-231 breast cancer cells. In kind it is cell-based. Conditions: for IC50: Table 10, read-out: Cytotoxicity, IC50 (μM) MDA-M B231.
Description: as §1

In data set [10] the test system is H-1975 cells. Description: Growth inhibition, H-1975 lung cancer cells. Conditions: for IC50: Table 10, read-out: Cytotoxicity, IC50 (μM) H-1975. In kind it is cell-based.
Description: as §1

Data set [11] deals with MDA PCa 2b cells.
Description: as §2, §3
The test system of data set [12] is 22Rv1 cells.
Description: as §2, §3
The subject of data set [13] is C4-2B cells.
Data set [14] relates to PC-3 cells.
For data set [15], the system named is LNCaP cells. The following applies: human, 72 h.
Description: as §2, §3
[16] abbreviates: read-out: Cellular IC50 (μM) PC-3, Table 9.
The mark [17] stands for this setting: read-out: Cellular IC50 (μM) LNCaP, Table 9.

Read-outs that look alike come from different tables or passages of the source.

Usually IC50 stands for the point on the concentration scale where inhibition reaches its midpoint.

In the case of `CC1(C)CCC(O)C=C1/C=C/C(=O)/C=C/c1csc2ccccc12` (stereo not drawn) [Compound B92], in data set [1], the “suppression of DHT-induced transactivation of T877A AR” value (“suppression” for short) is “pure antagonists”. Besides, the “Antiandrogenic activity evaluated by luciferase assay in PC-3 cells T877A” value in [1] was “++”. Further, the “NF-κB-dependent luciferase activity induced by expression of IKKi, TBK1, IKKb and p65” value in data set [2] was “potent effects”. Moreover, the 50% inhibitory concentration (IC50) was determined as 3.3 µM in data set [3] (setting [16]); 2 µM in data set [3] (read-out: Cytotoxicity in prostate cancer cell lines IC50 (μM), PC-3, Part D table, 72 hours, I.A. = Inactive); 1.1 µM in [4] (setting [17]); 1.5 µM in data set [5]; 1.1 µM in data set [6]; 0.87 µM in [7] (read-out: Cytotoxicity in prostate cancer cell lines IC50 (μM), PCa-2b, Part D table, 72 hours).

Consider `CC1=C(/C=C/C(=O)/C=C/c2cccc(C(F)(F)F)c2)C(C)(C)CCC1O` (racemic) [Compound B25], for which the “effect in MCF-7 breast cancer cell line” value in data set [8] was “effective”. The half-inhibitory concentration (IC50) was found to be 5.2 µM in data set [8]; 4.4 µM in data set [9]; 6.3 µM in data set [10]; 2600 nM in [11]; 1700 nM in data set [12]; 1400 nM in data set [13]. The IC50 in data set [14] stood at 3500 nM; in data set [4] (read-out: IC50 in LNCaP cells) it was 0.74 µM. Moreover, the “effect in MDA-MB-231 breast cancer cell line” value in [9] is reported as “effective”. In data set [10], the “effect in H-1975 lung cancer cell line” value is given as “effective”. Besides, the “suppression” value in data set [1] is reported as “dose-dependent activity”.

As for `CC1(C)CCC(O)C=C1/C=C/C(=O)/C=C/c1cnc2ccccc2c1` (stereo not drawn) [Compound B95], in data set [8], the “effect in MCF-7 breast cancer cell line” value is reported as “effective”. In addition, the IC50 in [8] (Homo sapiens, MCF7) was 5.5 µM; in [9] (Homo sapiens, MDA-MB-231), 3.6 µM; in data set [10] (Homo sapiens, NCI-H1975), 4.8 µM; in [15], 630 nM; in data set [11] (human, 72 h), 1300 nM; in [12] (human, 72 h), 1100 nM. For the same compound, the IC50 came out at 870 nM in data set [13] (human, 72 h); 2200 nM in data set [14] (human, 72 h); 2.3 µM in [3] (setting [16]); 0.63 µM in data set [4] (setting [17]); 1.2 µM in [5]; 1.4 µM in [6]. Also, the concentration for half-maximal inhibition (IC50) in data set [7] (read-out: Cellular IC50 (μM) PCa 2b, Table 9) came to 1.3 µM. In addition, the “effect in MDA-MB-231 breast cancer cell line” value in [9] is given as “effective”. For the same compound, in data set [10], the “effect in H-1975 lung cancer cell line” value is reported as “effective”. For the same compound, the “suppression” value in data set [1] is “effective”. The “Antiandrogenic activity evaluated by luciferase assay in PC-3 cells T877A” value in data set [1] is recorded as “++”.
